From paper PMC6984391, “Anion carriers as potential treatments for cystic fibrosis: transport in cystic fibrosis cells, and additivity to channel-targeting drugs” (Chemical Science, 2019)

Tests used:
YFP-FRT cells = experiment: Persistence of anion transport by fluorescence microscopy in YFP-FRT cells; assay type: cell-based, Fischer rat; details: 10 μM, continuous perfusion
Experimental: the PBS bathing cells 10 minutes prior to PBS iodide addition, whereas UTP was added to cells with the PBS iodide solution. Fluorescence was measured for 14 seconds; 2 seconds before and 12 seconds after injection of 110 µl PBS iodide solution (137 mM Cl- replaced by I-) into each well (to obtain a final concentration of I- of 100 mM).
We expressed cell fluorescence values (F) relative to the fluorescence value immediately before I- injection (F0), excluding the initial decrease, which likely represents the quenching of extracellular YFP released from cells and signal reduction accompanying the increase in solution volume bathing cells. To quantify anion transport by test anionophores, we determined the initial slope of the fluorescence decay following I - addition by fitting first order exponential functions to the last 12 seconds of each fluorescence recording. […]
fluorescence microscopy as described previously.10 In brief, YFP-FRT cells were washed 3x with PBS before transfer to a perfusion chamber mounted on the stage of a Leica DM IRB microscope. […] Any anionophore not incorporated into YFP-FRT cell membranes was removed from the chamber by perfusion with PBS when fluorescence measurements commenced. […]
Fluorescence data from 5 – 9 cells per coverslip were analysed with 4 coverslips tested for each anionophore. […]

[1] = parameters: method as in ref [20], [21], [23], [24], [29] (Reference column); details: transporter preincorporated in LUVs (70% POPC + 30% cholesterol), 25 mM NaCl gradient, 225 mM NaNO3; ref [20], [21], [23], [24], [29]; cited from earlier work

| SMILES | duration of anion transport after anionophore delivery (YFP-FRT cells) | Specific initial rate [I] [1] [s^–1] |
| --- | --- | --- |
| CCOC(=O)[C@]12CC[C@@H](NC(=S)Nc3ccc([N+](=O)[O-])cc3)C[C@@H]1C[C@@H](NC(=S)Nc1ccc([N+](=O)[O-])cc1)CC2 [Compound 12] | up to 2 h | – |
| CCOC(=O)[C@]12CC[C@@H](NC(=S)Nc3cc(C(F)(F)F)cc(C(F)(F)F)c3)C[C@@H]1C[C@@H](NC(=S)Nc1cc(C(F)(F)F)cc(C(F)(F)F)c1)CC2 [Compound 15] | – | 2600 |
